Data taken from article PMC4841536, “Characterization of the Anti-HCV Activities of the New Cyclophilin Inhibitor STG-175” (PLoS ONE, 2016).
Like-named read-outs stand apart in the source and are kept apart here.

Assays:
[1] = alamarBlue cytotoxicity (CC50), GT1a replicon cell line; conditions: human
Experimental: (§1) The anti-HCV activity of STG-175 was conducted using a panel of luciferase reporter replicon cell lines including GT1a, GT1b, GT2a, GT3a and GT4a as we described previously. The GT1a subgenomic renilla luciferase reporter replicon H77 RLucP (7) was supplied by Dr. Delaney. The GT1b subgenomic firefly luciferase reporter replicon pFK-I389/NS3-3’ [29] was supplied by Dr. Bartenschlager. The GT1B subgenomic NS3, NS5A and NS5B mutants were created via homologous recombination using the In-Fusion HD Cloning kit (Clontech) as we described previously. The GT2a genomic luciferase reporter replicon Luc-Neo-JFH-1 was generated as previously. The plasmid pFK-Luc-JFH1 was supplied from Drs. […] The CellTiter-Fluor™ Cell Viability Assay is a non-lytic fluorescence assay, which measures the number of live cells. […] Luciferase activity was determined using the Luciferase Assay System (Promega) in a Berthold luminometer. […] Viable cells continuously convert resazurin to resorufin, increasing the overall fluorescence and color of the media surrounding cells.
(§2) Fig 2 Anti-HCV activities of STG-175 among GTs. […] Luciferase activity was determined using the Luciferase Assay System in a Berthold luminometer. […] Data are expressed as mean of relative light units and calculated EC50s are presented. […]

[2] = test system: HIV-1 (JR-CSF) in activated PBMCs; assay: Mono-infection, HIV-1 capsid/p24 ELISA; type: cell-based; conditions: added together with virus, 12 days
Source text: For mono-infections: a) human hepatoma Huh7.5.1 cells were infected with HCV (JFH-1) and viral replication was quantified by HCV core ELISA (Ortho HCV antigen ELISA kit; Ortho Clinical Diagnostics, Waco Chemicals, Inc. or HCV Core ELISA, XpressBio); b) sodium-taurocholate co-transporting polypeptide (NTCP)-positive Huh7 cells were infected with hepatitis B virus (HBV) AD38 (produced from HepAD38 cells) and viral replication was quantified by HBV HBeAg ELISA; and c) human (peripheral blood monocytic cells (PBMCs) were infected with HIV-1 (JR-CSF) and viral replication was quantified by HIV-1 capsid/p24 ELISA. PBMCs were isolated as described previously. The Scripps Research Institute Normal Blood Donor Service (TSRI NBDS) provides TSRI investigators who have Human Subjects Committee-approved protocols with a source of normal blood for their research. Donors are assured of a controlled clinical setting for their blood to be drawn by licensed phlebotomists, and investigators are assured that the donors whose specimens they obtain through the service have been screened upon entry into the program and annually thereafter for a CBC, Hepatitis B and C and HIV-1. Hemoglobin determinations at every donation protect the donor from phlebotomy-induced anemia. […]

[3] = test system: HCV GT1a subgenomic replicon H77 RLucP; assay: Luciferase reporter replicon antiviral assay, GT1a; type: cell-based; conditions: Hepatitis C virus
Experimental: as §1, §2

[4] = test system: HCV GT1b subgenomic replicon pFK-I389/NS3-3’; assay: Luciferase reporter replicon antiviral assay, GT1b; type: cell-based; conditions: Hepatitis C virus
Experimental: The anti-HCV activity of STG-175 was conducted using a panel of luciferase reporter replicon cell lines including GT1a, GT1b, GT2a, GT3a and GT4a as we described previously. The GT1a subgenomic renilla luciferase reporter replicon H77 RLucP (7) was supplied by Dr. Delaney. The GT1b subgenomic firefly luciferase reporter replicon pFK-I389/NS3-3’ [29] was supplied by Dr. Bartenschlager. The GT1B subgenomic NS3, NS5A and NS5B mutants were created via homologous recombination using the In-Fusion HD Cloning kit (Clontech) as we described previously. The GT2a genomic luciferase reporter replicon Luc-Neo-JFH-1 was generated as previously. The plasmid pFK-Luc-JFH1 was supplied from Drs. Wakita and Pietschmann and the XbaI site in the firefly luciferase gene and the NotI site in the EMCV IRES were used to take the Luciferase/Ubiquitin-NPT II (the neomycin phosphotransferase II gene) fusion cassette out of pFK389ILuc-Neo (wild-type replicon from GT1b) and inserted into the pFK-Luc-JFH1 plasmid, generating full-length Luc-Neo-JFH-1 [30]. The GT3a subgenomic firefly luciferase reporter replicon S52/SG-Feo (AI) and the GT4a subgenomic firefly luciferase reporter replicon ED43/SG-Feo [33] were supplied by Drs. Rice and Bukh. Replicons were stably expressed in Huh7.5 or Huh7.5.1 cells under G418 selection. On Day 1, cells (5,000) were plated into 96-well plates in complete DMEM containing 10% FCS. On Day 2, increasing drug concentrations were added to wells. On Day 5, 72 h post-drug addition, medium was removed and replaced with 100 μL of fresh medium. Hundred μL of the fluorogenic, cell-permeant peptide substrate glycyl-phenylalanyl-amino fluorocoumarin was added to wells as per manufacturer’s recommendation (Promega Corp, Madison, WI). The CellTiter-Fluor™ Cell Viability Assay is a non-lytic fluorescence assay, which measures the number of live cells. […] Medium was removed, cells washed and lysed in 20 μL of Cell Culture Lysis Reagent. Luciferase activity was determined using the Luciferase Assay System (Promega) in a Berthold luminometer. The alamarBlue® assay (Thermo Fischer Scientific) was used to measure CC50s for STG-175 on replicon cell lines. When cells are alive they maintain a reducing environment within the cytosol of the cell. […] Upon entering cells, resazurin is reduced to resorufin, a compound that is red in color and highly fluorescent. Viable cells continuously convert resazurin to resorufin, increasing the overall fluorescence and color of the media surrounding cells.
Fig 2 Anti-HCV activities of STG-175 among GTs. A. Replicon-containing cells (5,000) were exposed to increasing concentrations of the indicated drugs. Seventy-two hours post-drug addition, the fluorogenic, cell-permeant peptide substrate glycyl-phenylalanyl-amino fluorocoumarin was added to measure the number of live cells. […] Luciferase activity was determined using the Luciferase Assay System in a Berthold luminometer. B. A similar experiment was conducted with the GT1b replicon cell line in 0, 5, 10, 20 and 40% of human serum. Data are expressed as mean of relative light units and calculated EC50s are presented. […] C.

[5] = alamarBlue cytotoxicity (CC50), GT1b replicon cell line; conditions: human
Experimental: as §1, §2

[6] = alamarBlue cytotoxicity (CC50), GT4a replicon cell line; conditions: human
Experimental: as §1, §2

[7] = test system: HCV GT2a genomic replicon Luc-Neo-JFH-1; assay: Luciferase reporter replicon antiviral assay, GT2a; type: cell-based; conditions: Hepatitis C virus
Experimental: as §1, §2

## CC=CCC(C)C(O)C1C(=O)NC(CC)C(=O)N(C)C(CSCCCCO)C(=O)N(C)C(CC(C)(C)O)C(=O)NC(C(C)C)C(=O)N(C)C(CC(C)C)C(=O)NC(C)C(=O)NC(C)C(=O)N(C)C(CC(C)C)C(=O)N(C)C(CC(C)C)C(=O)N(C)C(C(C)C)C(=O)N1C (stereo not drawn) [STG-175]
[1]
  CC50 at 72 h: > 10000 nM
[2]; 0.5 μM
  HIV-1 infection (HIV-1 capsid ELISA): significantly decreased infection
[2]; 5 μM
  HIV-1 infection (HIV-1 capsid ELISA): fully blocked
[3]; 72 h post-drug addition, luciferase, read-out: EC50 GT1a
  EC50: 13.5 nM
[3]; Fig 2D table, unit inferred, read-out: EC50 GT1a (Fig 2D)
  EC50: 13.5 nM
[4]; 0% human serum, read-out: EC50 GT1b in human serum
  EC50: 16 nM
[4]; 5% human serum, read-out: EC50 GT1b in human serum
  EC50: 15 nM
[4]; 10% human serum, read-out: EC50 GT1b in human serum
  EC50: 18.8 nM
[4]; 20% human serum, read-out: EC50 GT1b in human serum
  EC50: 22.2 nM
[4]; 40% human serum, read-out: EC50 GT1b in human serum
  EC50: 37.2 nM
[4]; 72 h, 72 h post-drug addition, luciferase, read-out: EC50 GT1b
  EC50: 15.1 nM
[5]
  CC50 at 72 h: > 10000 nM
[6]
  CC50 at 72 h: > 10000 nM
[7]; 72 h post-drug addition, luciferase, read-out: EC50 GT2a
  EC50: 11.5 nM
[7]; Fig 2D table, unit inferred, read-out: EC50 GT2a (Fig 2D)
  EC50: 11.5 nM
